Test results published in patent publication US20230255953A1, “USE OF ROLUPERIDONE IN PREVENTING RELAPSE IN SCHIZOPHRENIA PATIENTS” (Minerva Neurosciences, Inc., priority 2022, published 2023).

Test system: patients with negative symptoms of schizophrenia
Assay: Integrated analysis of Studies #1 and #2 (pooled ITT): PANSS-derived scores (NSFS, total, positive and negative subscales), DB, OL and whole study
Format: in vivo, human
Set-up: key to NSFS Score change from Baseline, Median: change from Baseline in PANSS NSFS points; higher score = more severe
Details: for NSFS Score change from Baseline, LS mean (SE) / NSFS Score change from Baseline, Mean (SD) / NSFS Score change from Baseline, Median / NSFS Score, Difference (95% CI) in LS mean (vs placebo) / PANSS Negative Subscale Score change from Baseline, LS mean (SE) / PANSS Negative Subscale Score change from Baseline, Mean (SD) / PANSS Negative Subscale Score change from Baseline, Median / PANSS Negative Subscale Score, Difference (95% CI) in LS mean (vs placebo) / PANSS Total Score change from Baseline, LS mean (SE) / PANSS Total Score change from Baseline, Mean (SD) / PANSS Total Score change from Baseline, Median / PANSS Total Score, Difference (95% CI) in LS mean (vs placebo): DB
Method: The primary integrated analysis of the efficacy of Roluperidone compared with placebo for the treatment of negative symptoms of schizophrenia is based on the change from Baseline in the PANSS Marder's negative symptoms factor score (in this document referred to as NSFS) to Week 12. Efficacy is also supported by the analysis of change from Baseline in the PSP Total score and the CGI-S to Week 12.
The PANSS was assessed at the time points described in Table 4.
The PANSS-derived endpoints used in these studies and the integrated analyses are described in Table 5A and a summary of the individual PANSS items used by physicians and clinicians to measure the severity of the symptoms in a schizophrenia patient is provided in Table 5B. The scale is divided into three parts, a positive scale, which provides a “PANSS positive subscore”, a negative scale, which provides a “PANSS negative subscore”, and general psychopathology scale. The sum of these three parts provides a PANSS total score, which ranges from 30 to 210 (where higher scores indicate more severe symptoms). (See Kay, S. R., et al. “The positive and negative syndrome scale (PANSS) for schizophrenia,” Schizophr Bulletin, 13(2), 261-276 (1987) and Gopal, S., et al. “Improvement of Negative Symptoms in Schizophrenia with Paliperidone Palmitate 1-Month and 3-Month Long-Acting Injectables: Results from a Phase 3 Non-Inferiority Study” Neuropsychiatric Disease and Treatment, 681-690, DOI: 10.2147/NDT.5226296, both of which are incorporated by reference.)
The Efficacy data from Study Nos. 1 and 2 were pooled. The majority of patients in the pooled ITT population completed the DB period (502 patients overall, 66.3%), with similar rates in each treatment group (placebo: 69.8%, 32 mg Roluperidone: 65.3%, and 64 mg Roluperidone: 63.8%) (Table 12). The majority (62.7%) of those who completed the DB period entered the OL period. The most common reason for discontinuation during the DB period among patients overall was withdrawal of consent (15.6%), followed by adverse events (7.3%) and lack of efficacy (5.4%) (Table 12). […] Approximately twice as many patients in the Roluperidone groups (32 mg: 8.5%; 64 mg: 9.1%) discontinued due to adverse events compared with patients in the placebo group (4.3%). More patients in the placebo group discontinued due to lack of efficacy (6.7%) than in the Roluperidone groups (32 mg: 4.4%; 64 mg: 5.1%). The low number of patients who discontinued due to lack of efficacy or withdrawal of consent probably reflects a low level of worsening of positive symptoms.
The integrated analysis supporting the efficacy of Roluperidone as a treatment for the negative symptoms of schizophrenia in adults is presented below.

1H-Isoindol-1-one,2-[ [1-[2-(4-fluorophenyl)-2-oxoethyl]-4-piperidinyl]methyl]-2,3-dihydro-, hydrochloride, hydrate (1:1:2) [Roluperidone]
PANSS positive subscale score, LS mean change from Baseline compared with placebo (32 mg, Week 12, pooled ITT): −0.3
PANSS total score, LS mean change from Baseline compared with placebo (32 mg, Week 12, pooled ITT): −1.9
Patients with 20% Reduction in NSFS at Week 12, percent (32 mg, responder analysis): 31%
Patients with 20% Reduction in PANSS Total Score at Week 12, percent (32 mg, responder analysis): 14%
Number of Patients with 20% Reduction in PANSS Total Score at Week 12 (32 mg, responder analysis, n/N): 24/167
Number of Patients with 20% reduction in NSFS at Week 12 (32 mg, responder analysis, n/N): 51/167
NSFS Score change from Baseline, LS mean (SE) (64 mg, Week 2, pooled ITT): −1.4 (0.15)
NSFS Score change from Baseline, Mean (SD) (64 mg, Week 2, pooled ITT): −1.4 (2.34)
NSFS Score change from Baseline, Median (64 mg, Week 2, pooled ITT): −1.0
NSFS Score, Difference (95% CI) in LS mean (vs placebo) (64 mg, Week 2, pooled ITT): −0.4 (−0.8, −0.0)
PANSS Negative Subscale Score change from Baseline, LS mean (SE) (64 mg, Week 2, pooled ITT): −1.4 (0.14)
PANSS Negative Subscale Score change from Baseline, Mean (SD) (64 mg, Week 2, pooled ITT): −1.4 (2.28)
PANSS Negative Subscale Score change from Baseline, Median (64 mg, Week 2, pooled ITT): −1.0
PANSS Negative Subscale Score, Difference (95% CI) in LS mean (vs placebo) (64 mg, Week 2, pooled ITT): −0.4
PANSS Total Score change from Baseline, LS mean (SE) (64 mg, Week 2, pooled ITT): −2.2 (0.44)
PANSS Total Score change from Baseline, Mean (SD) (64 mg, Week 2, pooled ITT): −2.2 (7.15)
PANSS Total Score change from Baseline, Median (64 mg, Week 2, pooled ITT): −2.0
PANSS Total Score, Difference (95% CI) in LS mean (vs placebo) (64 mg, Week 2, pooled ITT): −0.9
PANSS Positive Subscale Score change from Baseline, LS mean (SE) (64 mg, Week 2, pooled ITT): −0.1 (0.17)
PANSS Positive Subscale Score change from Baseline, Mean (SD) (64 mg, Week 2, pooled ITT): −0.1 (2.85)
PANSS Positive Subscale Score change from Baseline, Median (64 mg, Week 2, pooled ITT): 0.0
PANSS Positive Subscale Score, Difference (95% CI) in LS mean (vs placebo) (64 mg, Week 2, pooled ITT): −0.1
NSFS Score change from Baseline, LS mean (SE) (64 mg, Week 4, pooled ITT): −2.5 (0.19)
NSFS Score change from Baseline, Mean (SD) (64 mg, Week 4, pooled ITT): −2.6 (2.73)
NSFS Score change from Baseline, Median (64 mg, Week 4, pooled ITT): −2.0
NSFS Score, Difference (95% CI) in LS mean (vs placebo) (64 mg, Week 4, pooled ITT): −1.1
PANSS Negative Subscale Score change from Baseline, LS mean (SE) (64 mg, Week 4, pooled ITT): −2.6 (0.19)
PANSS Negative Subscale Score change from Baseline, Mean (SD) (64 mg, Week 4, pooled ITT): −2.8 (2.82)
PANSS Negative Subscale Score change from Baseline, Median (64 mg, Week 4, pooled ITT): −2.0
PANSS Negative Subscale Score, Difference (95% CI) in LS mean (vs placebo) (64 mg, Week 4, pooled ITT): −1.2
PANSS Total Score change from Baseline, LS mean (SE) (64 mg, Week 4, pooled ITT): −4.5 (0.52)
PANSS Total Score change from Baseline, Mean (SD) (64 mg, Week 4, pooled ITT): −5.1 (7.16)
PANSS Total Score change from Baseline, Median (64 mg, Week 4, pooled ITT): −5.0
PANSS Total Score, Difference (95% CI) in LS mean (vs placebo) (64 mg, Week 4, pooled ITT): −2.5
PANSS Positive Subscale Score change from Baseline, LS mean (SE) (64 mg, Week 4, pooled ITT): −0.2 (0.18)
PANSS Positive Subscale Score change from Baseline, Mean (SD) (64 mg, Week 4, pooled ITT): −0.4 (2.49)
PANSS Positive Subscale Score change from Baseline, Median (64 mg, Week 4, pooled ITT): −1.0
PANSS Positive Subscale Score, Difference (95% CI) in LS mean (vs placebo) (64 mg, Week 4, pooled ITT): −0.5
NSFS Score change from Baseline, LS mean (SE) (64 mg, Week 8, pooled ITT): −3.4 (0.23)
NSFS Score change from Baseline, Mean (SD) (64 mg, Week 8, pooled ITT): −3.6 (3.28)
NSFS Score change from Baseline, Median (64 mg, Week 8, pooled ITT): −3.0
NSFS Score, Difference (95% CI) in LS mean (vs placebo) (64 mg, Week 8, pooled ITT): −1.2
PANSS Negative Subscale Score change from Baseline, LS mean (SE) (64 mg, Week 8, pooled ITT): −3.7 (0.23)
PANSS Negative Subscale Score change from Baseline, Mean (SD) (64 mg, Week 8, pooled ITT): −3.9 (3.27)
PANSS Negative Subscale Score change from Baseline, Median (64 mg, Week 8, pooled ITT): −3.0
PANSS Negative Subscale Score, Difference (95% CI) in LS mean (vs placebo) (64 mg, Week 8, pooled ITT): −1.3
PANSS Total Score change from Baseline, LS mean (SE) (64 mg, Week 8, pooled ITT): −5.7 (0.65)
PANSS Total Score change from Baseline, Mean (SD) (64 mg, Week 8, pooled ITT): −6.8 (8.79)
PANSS Total Score change from Baseline, Median (64 mg, Week 8, pooled ITT): −6.0
PANSS Total Score, Difference (95% CI) in LS mean (vs placebo) (64 mg, Week 8, pooled ITT): −2.5
PANSS Positive Subscale Score change from Baseline, LS mean (SE) (64 mg, Week 8, pooled ITT): −0.3 (0.20)
PANSS Positive Subscale Score change from Baseline, Mean (SD) (64 mg, Week 8, pooled ITT): −0.6 (2.61)
PANSS Positive Subscale Score change from Baseline, Median (64 mg, Week 8, pooled ITT): −1.0
PANSS Positive Subscale Score, Difference (95% CI) in LS mean (vs placebo) (64 mg, Week 8, pooled ITT): −0.5
NSFS Score change from Baseline, LS mean (SE) (64 mg, Week 12, pooled ITT): −3.9 (0.26)
NSFS Score change from Baseline, Mean (SD) (64 mg, Week 12, pooled ITT): −4.1 (3.64)
NSFS Score change from Baseline, Median (64 mg, Week 12, pooled ITT): −3.5
NSFS Score, Difference (95% CI) in LS mean (vs placebo) (64 mg, Week 12, pooled ITT): −1.3
PANSS Negative Subscale Score change from Baseline, LS mean (SE) (64 mg, Week 12, pooled ITT): −4.1 (0.27)
PANSS Negative Subscale Score change from Baseline, Mean (SD) (64 mg, Week 12, pooled ITT): −4.4 (3.75)
PANSS Negative Subscale Score change from Baseline, Median (64 mg, Week 12, pooled ITT): −4.0
PANSS Negative Subscale Score, Difference (95% CI) in LS mean (vs placebo) (64 mg, Week 12, pooled ITT): −1.3
PANSS Total Score change from Baseline, LS mean (SE) (64 mg, Week 12, pooled ITT): −6.3 (0.70)
PANSS Total Score change from Baseline, Mean (SD) (64 mg, Week 12, pooled ITT): −7.7 (9.43)
PANSS Total Score change from Baseline, Median (64 mg, Week 12, pooled ITT): −7.0
PANSS Total Score, Difference (95% CI) in LS mean (vs placebo) (64 mg, Week 12, pooled ITT): −2.8
NSFS Emotional Experience Score, Change from Baseline (LS Means [SEM]) (64 mg, Week 12, ITT): −1.6 (0.13)
NSFS Emotional Expression Score, Change from Baseline (LS Means [SEM]) (64 mg, Week 12, ITT): −2.3 (0.16)
NSFS, Change from Baseline (LS Means [SEM]) (64 mg, Week 12, ITT): −3.9 (0.26)
PANSS General Psychopathology Subscale, Change from Baseline (LS Means [SEM]) (64 mg, Week 12, ITT): −2.2 (0.37)
PANSS Negative Symptoms Subscale, Change from Baseline (LS Means [SEM]) (64 mg, Week 12, ITT): −4.1 (0.27)
PANSS Positive Symptoms Subscale, Change from Baseline (LS Means [SEM]) (64 mg, Week 12, ITT): −0.2 (0.21)
PANSS Total Score, Change from Baseline (LS Means [SEM]) (64 mg, Week 12, ITT): −6.3 (0.70)
NSFS, LS mean change from Baseline compared with placebo (64 mg, Week 12, normal BMI (<25 kg/m^2) subgroup, pooled ITT): −1.7
NSFS, LS mean change from Baseline compared with placebo (64 mg, Week 12, obese (≥30 kg/m^2) subgroup, pooled ITT): −0.1
NSFS, LS mean change from Baseline compared with placebo (64 mg, Week 12, overweight BMI (25 to <30 kg/m^2) subgroup, pooled ITT): −1.4
Patients with high improvement in NSFS (magnitude of change >8) (64 mg, Week 12, pooled): 13%
